# Experiments:
# [1] = biological target: MYC:TRRAP interaction (Homo sapiens, UniProt P01106+Q9Y4A5); test: MYC:TRRAP in-cell luminescence complementation assay (NanoBiT; SmB-MYC 1-190 and TRRAP 2033-2283-LgB in HeLa cells); type: cell-based
# Method: HeLa cells plated on Greiner 96-well TC-rated white plates with clear bottoms were used for the following measurements. Reverse transfections were carried out using LipoD293™ before cells were plated. A bluescript KS' plasmid (Addgene) was used as carrier DNA for transfections, and a pcDNA3.1 EGFP plasmid (ThermoFisher) was used as a fluorescence reporter. White light-reflecting film (USA Scientific) was used to cover the bottom of the plates for luminescence measurements. Black light-absorbing film was used to cover the top of the plates for fluorescence measurements. All measurements were taken on a SpectraMax i3 instrument (Molecular Devices).
# Transfections were carried out with increasing DNA amounts (1-100 ng per well) of a CMV-driven LgB plasmid and SmB in excess or vice-versa. Background luminesce for the usable range and the amount of DNA needed for vast excess of LgB or SmB were noted. Next, complementation with vast excess either LgB or SmB was used to determine the expression of each of the indicated MYC and TRRAP constructs for a range of DNA amounts per well: 10-100 ng. An optimal ratio of DNA to equalize the expression of each MYC and TRRAP pair was calculated. Then, signal-to-noise ratios were calculated for the indicated MYC and TRRAP pairs, and the pair with the highest ratio was chosen. Finally, the chosen pair was used to determine the optimal DNA transfection mixture. It was determined to be 6.7 ng of a plasmid with a MYC construct, 60 ng of a plasmid with a TRRAP construct and 33.3 ng of the pcDNA 3.1 EGFP plasmid, for each well in a 96-well plate. Unless otherwise indicated, these were the ratios of DNA transfected for this type of assay.
# HeLa cells were transfected as above using LipoD293™ with a mixture of SmB-MYC 1-190, TRRAP 2033-2283-LgB, and EGFP in CMV-driven plasmids at the same optimized ratio described above. Two days post-transfection, the media in each well was replaced with fresh media containing each compound from the NCI's sets at 25 μM. Cells were incubated for 2 h with each compound, and luminescence and fluorescence measurements were recorded for each well. Changes in luminescence were normalized to fluorescence. The following pre-plated compound sets were obtained from the NCI/DTP chemical repository and used for this screen:
# These chemical sets were used to discover novel small-molecule inhibitors of the MYC:TRRAP complex. SmB-MYC 1-190, TRRAP 2033-2283-LgB, and EGFP were transfected into HeLa cells. Two days post-transfection, compounds were added to the media at 25 μM and cells were incubated for 2h. Luminescence and fluorescence were recorded for each well containing one of the compounds. Changes in luminescence measurements were normalized to fluorescence measurements.
# Afterwards, only molecules that reduced luminescence levels to <50% RLU were considered. This set of 46 compounds were incubated at 10 μM with vector-expressing cells. Luminescence complementation was measured and repeated in triplicate measurements. In addition, HeLa cells expressing LgB and SmB alone were incubated with the same compounds to rule out potentially artificial results due to inhibition of luciferase or its complementation. Molecules that induces any significant reduction in luminescence (<0.6) during this control assay were not considered further. Of 2947 molecules, 17 were chosen for further testing and ordered from the NCI/DTP Open Chemical Repository. FIG. 16 describes these chosen compounds.
# Using the luminescence assay above as a readout for the MYC:TRRAP interaction, we used a robotic liquid handler to evaluate 2987 additional compounds (25 μM). All primary hits were counter-screened for any activity against the luciferase enzyme itself and for any effects on the expression of the fusion proteins. We set a threshold of 50% inhibition to consider compounds further. Only 17 out of 2987 passed all these criteria (0.6%). […]
# [2] = biological target: T1, endogenous MYC:TRRAP complex (Homo sapiens, UniProt P01106+Q9Y4A5); test: co-IP of the endogenous MYC:TRRAP complex from HeLa cells incubated with compounds; type: cell-based; details: for inhibition of MYC:TRRAP complex formation: luminescence assay and co-IP assay, compared to DMSO vehicle control, FIG. 24A
# T1 construct: immunoprecipitation experiments using endogenous full length MYC and TRRAP
# Method: FIGS. 23A-23B show the results of co-IP assay experiments comparing the top 17 hits in immunoprecipitation experiments using endogenous full length MYC and TRRAP. In these experiments immunocomplexes were immunoprecipitated with anti-MYC beads in the presence of 25 μM of each of the 17 top compounds. Experiments were carried out in cells (compounds were added to the media of cells) (FIG. 23B) or in vitro (compounds were added directly to the purified complex on pre-washed beads) (FIG. 23A). Immunoprecipitation of TRRAP was normalized to the immunoprecipitation of MYC.
# The indicated TRRAP constructs were cloned into a CMV-driven plasmid containing an N-terminal FLAG tag as previously described (23). Full-length wild-type (WT) MYC and MYC ΔMB2 (A129-145), and the indicated MYC constructs were cloned into the same CMV-driven plasmid but containing a Glu-Glu (PYO) tag instead. HEK293T cells were co-transfected with equal amounts of each plasmid using LipoD293™ In vitro DNA Transfection Reagent per protocol (SignaGen). Cells were plated subconfluently 16-20 hours prior to transfection. After 24 hours, cells were lysed in F-buffer (10 mM TRIS pH 7.5, 50 mM NaCl, 30 mM sodium pyrophosphate, […], 10% glycerol, 1% Triton-X, 50 mM NaF) supplemented with 1 mM PMSF, 10 μM Leupeptin, 10 μM Pepstatin-A, and 10 μg/mL Aprotinin for immunoprecipitations and co-immunoprecipitations. Immunoprecipitations were performed using anti-FLAG (Sigma Aldrich), anti-PYO (Covance), or anti-MYC (C33 Santa Cruz Biotechnology) agarose preconjugated beads. Co-immunoprecipitation was analyzed by western blots with the following antibodies: MYC (sc-764 Santa Cruz Biotechnology), TRRAP (A301-132A Bethel Laboratories), FLAG (F7425 Sigma Aldrich), and PYO (Covance).
# Co-IP experiments of the endogenous MYC:TRRAP complex were carried out to validate the results from the MYC:TRRAP in-cell luminescence complementation screen performed. HeLa cells were again subjected to the effects of incubation with each of the 17 compounds from FIG. 16 for 2 h before analysis. FIG. 19, FIG. 20, and FIG. 21 present the effects of these compounds on the endogenous MYC:TRRAP and MYC:MAX complexes. Like before, all compounds except for 7 and 11 had no effect on the levels of MYC or TRRAP. […] Incubation with some of the compounds that scored positive by the in-cell luminescence complementation screen had the predicted effect on the endogenous MYC:TRRAP complex. This validates the preliminary compound screen and presents the completion of a major milestone in the effort to therapeutically target MYC in cancer.
# [3] = Table 2, compounds with >80% similarity to compound 10 (NSC657456), 10 uM
# MYC:TRRAP interaction, sequence (P01106 16-205): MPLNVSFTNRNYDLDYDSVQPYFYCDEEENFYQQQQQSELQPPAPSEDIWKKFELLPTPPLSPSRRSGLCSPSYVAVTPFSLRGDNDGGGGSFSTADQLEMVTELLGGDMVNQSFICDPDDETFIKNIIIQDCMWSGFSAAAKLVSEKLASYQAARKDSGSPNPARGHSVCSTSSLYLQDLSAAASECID
# MYC:TRRAP interaction, sequence (Q9Y4A5 2051-2301): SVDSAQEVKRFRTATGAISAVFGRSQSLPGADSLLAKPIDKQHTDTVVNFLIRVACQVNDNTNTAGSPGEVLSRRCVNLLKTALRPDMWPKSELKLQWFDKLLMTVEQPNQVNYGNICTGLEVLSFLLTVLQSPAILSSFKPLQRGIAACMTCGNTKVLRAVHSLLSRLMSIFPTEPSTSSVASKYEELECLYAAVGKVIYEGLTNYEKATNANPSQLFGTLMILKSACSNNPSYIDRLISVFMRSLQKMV
# T1 sequence (P01106 16-454): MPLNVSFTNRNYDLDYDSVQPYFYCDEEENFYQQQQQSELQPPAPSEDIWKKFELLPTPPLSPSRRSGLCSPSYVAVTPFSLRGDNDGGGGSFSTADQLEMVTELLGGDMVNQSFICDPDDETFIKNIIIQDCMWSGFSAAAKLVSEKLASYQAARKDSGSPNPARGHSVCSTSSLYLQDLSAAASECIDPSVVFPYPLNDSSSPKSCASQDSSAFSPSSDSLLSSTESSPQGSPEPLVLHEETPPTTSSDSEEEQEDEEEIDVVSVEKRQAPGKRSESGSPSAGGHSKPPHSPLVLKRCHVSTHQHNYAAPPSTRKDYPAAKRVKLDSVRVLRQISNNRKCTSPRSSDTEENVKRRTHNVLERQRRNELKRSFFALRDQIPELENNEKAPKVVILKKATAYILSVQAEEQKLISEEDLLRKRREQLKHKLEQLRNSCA
# T1 sequence (Q9Y4A5 1-3830 isoform Q9Y4A5-2): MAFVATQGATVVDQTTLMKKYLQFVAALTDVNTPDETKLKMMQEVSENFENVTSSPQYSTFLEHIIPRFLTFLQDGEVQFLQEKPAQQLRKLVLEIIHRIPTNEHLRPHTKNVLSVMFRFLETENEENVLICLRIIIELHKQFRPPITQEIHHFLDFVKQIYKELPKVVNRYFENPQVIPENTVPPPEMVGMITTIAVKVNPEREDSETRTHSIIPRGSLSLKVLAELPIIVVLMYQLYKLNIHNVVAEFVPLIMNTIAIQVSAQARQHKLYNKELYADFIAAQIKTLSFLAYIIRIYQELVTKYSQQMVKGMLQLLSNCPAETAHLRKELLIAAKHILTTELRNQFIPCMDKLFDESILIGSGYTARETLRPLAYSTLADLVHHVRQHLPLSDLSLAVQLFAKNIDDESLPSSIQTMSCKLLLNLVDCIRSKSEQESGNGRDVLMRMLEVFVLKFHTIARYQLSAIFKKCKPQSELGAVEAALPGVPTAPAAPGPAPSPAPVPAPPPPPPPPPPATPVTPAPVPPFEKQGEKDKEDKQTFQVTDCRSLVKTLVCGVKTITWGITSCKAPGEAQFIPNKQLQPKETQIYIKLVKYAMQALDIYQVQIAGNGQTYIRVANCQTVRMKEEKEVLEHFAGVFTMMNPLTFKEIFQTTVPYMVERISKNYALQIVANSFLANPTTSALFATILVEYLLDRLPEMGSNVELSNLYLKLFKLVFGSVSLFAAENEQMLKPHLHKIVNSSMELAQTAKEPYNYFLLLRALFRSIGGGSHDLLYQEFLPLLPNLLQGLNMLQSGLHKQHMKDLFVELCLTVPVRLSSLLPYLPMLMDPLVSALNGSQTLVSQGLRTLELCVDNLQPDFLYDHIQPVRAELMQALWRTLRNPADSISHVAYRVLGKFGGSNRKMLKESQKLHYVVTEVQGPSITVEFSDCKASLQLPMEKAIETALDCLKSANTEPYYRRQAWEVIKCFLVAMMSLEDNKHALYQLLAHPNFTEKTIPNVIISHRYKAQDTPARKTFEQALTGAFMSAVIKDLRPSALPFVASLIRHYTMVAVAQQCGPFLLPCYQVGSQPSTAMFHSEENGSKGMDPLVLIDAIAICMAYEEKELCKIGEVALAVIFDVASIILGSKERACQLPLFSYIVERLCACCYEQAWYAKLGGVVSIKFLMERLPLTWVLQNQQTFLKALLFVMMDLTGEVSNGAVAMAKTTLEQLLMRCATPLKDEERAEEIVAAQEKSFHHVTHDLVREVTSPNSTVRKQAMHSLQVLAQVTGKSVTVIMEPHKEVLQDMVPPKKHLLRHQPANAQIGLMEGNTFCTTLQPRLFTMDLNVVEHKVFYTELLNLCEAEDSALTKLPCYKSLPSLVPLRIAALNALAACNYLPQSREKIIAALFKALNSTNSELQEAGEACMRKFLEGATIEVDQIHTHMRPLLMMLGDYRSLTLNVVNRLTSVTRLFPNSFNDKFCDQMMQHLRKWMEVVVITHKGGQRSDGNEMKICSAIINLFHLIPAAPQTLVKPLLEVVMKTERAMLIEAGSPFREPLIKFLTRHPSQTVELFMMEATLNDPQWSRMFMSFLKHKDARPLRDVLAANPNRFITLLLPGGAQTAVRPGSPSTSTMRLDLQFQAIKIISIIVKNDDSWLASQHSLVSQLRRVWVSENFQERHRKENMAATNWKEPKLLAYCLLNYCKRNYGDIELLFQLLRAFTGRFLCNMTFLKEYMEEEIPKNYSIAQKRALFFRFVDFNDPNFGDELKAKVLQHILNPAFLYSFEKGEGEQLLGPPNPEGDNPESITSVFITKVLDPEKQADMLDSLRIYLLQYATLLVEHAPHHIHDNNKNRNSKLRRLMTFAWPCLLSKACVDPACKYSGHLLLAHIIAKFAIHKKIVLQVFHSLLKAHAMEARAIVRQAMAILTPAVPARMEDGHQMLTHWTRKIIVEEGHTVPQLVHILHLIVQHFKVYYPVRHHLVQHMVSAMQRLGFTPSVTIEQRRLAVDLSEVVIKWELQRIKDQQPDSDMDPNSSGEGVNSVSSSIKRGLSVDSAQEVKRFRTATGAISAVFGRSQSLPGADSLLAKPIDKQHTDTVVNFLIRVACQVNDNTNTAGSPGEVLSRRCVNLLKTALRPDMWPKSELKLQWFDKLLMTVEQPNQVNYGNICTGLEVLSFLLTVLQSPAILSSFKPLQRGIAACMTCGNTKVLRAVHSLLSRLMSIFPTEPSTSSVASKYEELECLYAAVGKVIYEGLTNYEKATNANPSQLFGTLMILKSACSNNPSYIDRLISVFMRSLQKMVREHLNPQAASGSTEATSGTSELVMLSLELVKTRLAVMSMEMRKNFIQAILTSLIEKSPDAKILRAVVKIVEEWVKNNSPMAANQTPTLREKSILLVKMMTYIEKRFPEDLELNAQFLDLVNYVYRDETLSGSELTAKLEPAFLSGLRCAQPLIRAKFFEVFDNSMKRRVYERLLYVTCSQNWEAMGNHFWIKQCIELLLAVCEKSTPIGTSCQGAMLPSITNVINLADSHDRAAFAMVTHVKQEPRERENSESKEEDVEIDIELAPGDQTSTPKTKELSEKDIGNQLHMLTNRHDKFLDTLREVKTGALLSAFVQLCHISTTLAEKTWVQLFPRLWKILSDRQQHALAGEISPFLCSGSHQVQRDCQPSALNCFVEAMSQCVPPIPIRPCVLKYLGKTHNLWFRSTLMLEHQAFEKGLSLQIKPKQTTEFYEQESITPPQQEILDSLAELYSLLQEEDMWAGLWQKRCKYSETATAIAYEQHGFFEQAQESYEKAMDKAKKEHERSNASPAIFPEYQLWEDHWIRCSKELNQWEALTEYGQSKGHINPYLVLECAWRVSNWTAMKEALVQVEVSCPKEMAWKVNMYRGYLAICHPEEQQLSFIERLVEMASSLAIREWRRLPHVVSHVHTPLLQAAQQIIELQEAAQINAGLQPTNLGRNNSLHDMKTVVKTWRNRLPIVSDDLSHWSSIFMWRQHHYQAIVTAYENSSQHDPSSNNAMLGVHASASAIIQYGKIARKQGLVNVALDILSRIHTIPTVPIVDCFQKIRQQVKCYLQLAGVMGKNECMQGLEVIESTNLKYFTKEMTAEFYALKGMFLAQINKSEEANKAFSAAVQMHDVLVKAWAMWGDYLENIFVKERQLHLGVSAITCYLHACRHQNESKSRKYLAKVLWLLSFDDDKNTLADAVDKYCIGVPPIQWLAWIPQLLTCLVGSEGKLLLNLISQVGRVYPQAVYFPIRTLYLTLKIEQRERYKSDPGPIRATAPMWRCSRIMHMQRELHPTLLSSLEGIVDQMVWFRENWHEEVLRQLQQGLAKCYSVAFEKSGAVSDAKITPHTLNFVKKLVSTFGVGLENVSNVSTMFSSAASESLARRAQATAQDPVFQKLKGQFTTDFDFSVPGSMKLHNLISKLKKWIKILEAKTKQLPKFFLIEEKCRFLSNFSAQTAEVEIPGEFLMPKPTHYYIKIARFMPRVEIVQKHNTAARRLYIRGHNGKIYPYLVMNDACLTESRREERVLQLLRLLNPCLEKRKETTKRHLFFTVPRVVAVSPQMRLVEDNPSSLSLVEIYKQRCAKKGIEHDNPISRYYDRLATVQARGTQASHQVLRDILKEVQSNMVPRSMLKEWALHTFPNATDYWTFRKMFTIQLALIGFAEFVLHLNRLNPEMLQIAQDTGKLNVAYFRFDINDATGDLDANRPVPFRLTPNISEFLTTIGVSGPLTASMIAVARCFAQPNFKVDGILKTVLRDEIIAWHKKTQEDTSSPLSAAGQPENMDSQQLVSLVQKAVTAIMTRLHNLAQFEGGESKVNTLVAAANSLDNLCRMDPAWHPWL
"% Inhibition 10 uM [1, 3]",Compound,further results
88.1%,"COc1cc(C=C2S/C(=N/Nc3nc(-c4ccc(Br)cc4)cs3)N=C2O)cc(OC)c1OC (stereo in doubt) [Compound 10N, (2E,5Z)-2-[[4-(4-bromophenyl)-1,3-thiazol-2-yl] hydrazinylidene]-5-[(3,4,5-trimethoxy-phenyl)methylidene]-1,3-thiazolidin-4-one]",inhibition of the endogenous MYC:TRRAP interaction ([2]; FIG. 24): do not inhibit the endogenous MYC:TRRAP interaction; inhibition of MYC:TRRAP complex formation [2]: 20%
73.56%,"Oc1[nH]c2ccccc2c1/N=N/c1nc(-c2ccc(Br)cc2)cs1 [Compound 10, 3-[[4-(4-bromophenyl)-1,3-thiazol-2-yl]diazenyl]-1H-indol-2-ol]","% Inhibition 10 uM ([1]; Table 1, 46 primary hits at 10 uM, HeLa cells, triplicate measurements): 58.98%; inhibition of MYC:TRRAP binding ([1]; most consistent inhibition in multiple assays): ~ 50%; inhibitory activity on immunoprecipitation of TRRAP normalized to MYC ([2]; 25 μM, top 17 hits, in cells or in vitro, FIG. 23A-23B): greatest inhibitory activity; inhibition of MYC:TRRAP complex formation [2]: 70%"
82.44%,"N=C(S)/N=N/c1c(O)[nH]c2cccc(C(F)(F)F)c12 [Compound 1015, [2-hydroxy-4-(trifluoro-methyl)-1H-indol-3-yl]iminothiourea]",
104.5%,"O=C1CSC(/N=N/c2c(O)[nH]c3ccccc23)=N1 [Compound 1016, 2-[(2-hydroxy-1H-indol-3-yl)diazenyl]-1,3-thiazol-4-one]",
77.04%,C=CC/N=C(S)/N=N/c1c(O)[nH]c2ccccc12 [Compound 1018],
82.34%,"O=C(/N=N/c1c(O)[nH]c2ccccc12)C(F)(F)F [Compound 1019, 2,2,2-trifluoro-N-[(2-hydroxy-1H-indol-3-yl)imino] acetamide]",
91.72%,"Oc1[nH]c2ccccc2c1/N=N/C1=NCCN1 [Compound 1020, 3-(4,5-dihydro-1H-imidazol-2-yldiazenyl)-1H-indol-2-ol]",
71.88%,"Nn1c(S)nnc1/N=N/c1c(O)[nH]c2ccccc12 [Compound 1021, 4-amino-3-[(2-hydroxy-1H-indol-3-yl)diazenyl]-1H-1,2,4-triazole-5-thione]",
54.58%,"O=[N+]([O-])c1cccc(-c2csc(/N=N/c3c(O)[nH]c4ccccc34)n2)c1 [Compound 1022, 3-[[4-(3-nitrophenyl)-1,3-thiazol-2-yl]diazenyl]-1H-indol-2-ol]",
47.93%,"O=[N+]([O-])c1ccc(-c2csc(N=Nc3c(O)[nH]c4ccccc34)n2)cc1 [Compound 1023, 3-[[4-(4-nitrophenyl)-1,3-thiazol-2-yl]diazenyl]-1H-indol-2-ol]",
53.24%,"Oc1[nH]c2ccccc2c1/N=N/c1nc(-c2ccc(Cl)c(Cl)c2)cs1 [Compound 1025, 3-[[4-(3,4-dichlorophenyl)-1,3-thiazol-2-yl]diazenyl]-1H-indol-2-ol]",
59.51%,"CCOC(=O)Cc1csc(/N=N/c2c(O)[nH]c3ccccc23)n1 [Compound 1026, ethyl 2-[2-[(2-hydroxy-1H-indol-3-yl)diazenyl]-1,3-thiazol-4-yl] acetate]",
50.66%,"Cc1sc(/N=N/c2c(O)[nH]c3ccccc23)nc1-c1ccccc1 [Compound 1027, 3-[(5-methyl-4-phenyl-1,3-thiazol-2-yl)diazenyl]-1H-indol-2-ol]",
97.46%,"O=C(Cc1csc(/N=N/c2c(O)[nH]c3ccccc23)n1)Nc1ccccc1 [Compound 1028, 2-[2-[(2-hydroxy-1H-indol-3-yl)diazenyl]-1,3-thiazol-4-y]-N-phenylacetamide]",
98.07%,Cc1ccccc1NC(=O)Cc1csc(/N=N/c2c(O)[nH]c3ccccc23)n1 [Compound 1029],
88.62%,"CCCNC(=S)N=Nc1c(O)[nH]c2ccccc12 [Compound 1032, 1-[(2-hydroxy-1H-indol-3-yl)imino]-3-propylthiourea]",
86.96%,"Oc1[nH]c2ccccc2c1/N=N/C(=S)N1CCCC1 [Compound 1033, N-((2-hydroxy-1H-indol-3-yl)imino] pyrrolidine-1-carbothioamide]",
111.9%,"Cc1ccccc1/N=C(S)/N=N/c1c(O)[nH]c2ccccc12 [Compound 1034, 1-[(2-hydroxy-1H-indol-3-yl)imino]-3-(2-methylphenyl) thiourea]",
82.12%,"Cc1cccc(/N=C(S)/N=N/c2c(O)[nH]c3ccccc23)c1 [Compound 1035, 1-[(2-hydroxy-1H-indol-3-yl)imino]-3-(3-methylphenyl) thiourea]",
86.98%,Cc1ccc(/N=C(S)/N=N/c2c(O)[nH]c3ccccc23)cc1 [Compound 1036],
85.49%,"Oc1[nH]c2ccccc2c1/N=N/C1=NCCCCN1 [Compound 1037, 3-(4,5,6,7-tetrahydro-1H-1,3-diazepin-2-yldiazenyl)-1H-indol-2-ol; hydroiodide]",
86.67%,"O=C(Cc1ccccc1)/N=N/c1c(O)[nH]c2ccccc12 [Compound 1038, N-((2-hydroxy-1H-indol-3-yl)imino]-2-phenylacetamide]",
59.84%,"c1ccc2c(c1)=NOc1[nH]c3ccccc3c1N=2 [Compound 1039, 5H-indolo[2,3-c][2,1,5]ben-zoxadiazepine]",

Compound,"% Inhibition 10 uM [1, 3]",further results
"N#CC(=N)/C(C#N)=N/c1c(O)[nH]c2ccccc12 [Compound 1017, N′-(2-hydroxy-1H-indol-3-yl)ethane-diimidoyl dicyanide]",89.13%,
